From article PMC9564123, “Identification of Monobenzone as a Novel Potential Anti-Acute Myeloid Leukaemia Agent That Inhibits RNR and Suppresses Tumour Growth in Mouse Xenograft Model” (Cancers, 2022)

Assays:
[1] = target: T1, recombinant RNR (RRM1 + RRM2) (Homo sapiens, UniProt P31350); test: recombinant RNR activity assay, CDP to dCDP conversion; assay type: biochemical
T1 construct: with Ribonucleoside-diphosphate reductase large subunit
T1 sequence (P31350 1-389): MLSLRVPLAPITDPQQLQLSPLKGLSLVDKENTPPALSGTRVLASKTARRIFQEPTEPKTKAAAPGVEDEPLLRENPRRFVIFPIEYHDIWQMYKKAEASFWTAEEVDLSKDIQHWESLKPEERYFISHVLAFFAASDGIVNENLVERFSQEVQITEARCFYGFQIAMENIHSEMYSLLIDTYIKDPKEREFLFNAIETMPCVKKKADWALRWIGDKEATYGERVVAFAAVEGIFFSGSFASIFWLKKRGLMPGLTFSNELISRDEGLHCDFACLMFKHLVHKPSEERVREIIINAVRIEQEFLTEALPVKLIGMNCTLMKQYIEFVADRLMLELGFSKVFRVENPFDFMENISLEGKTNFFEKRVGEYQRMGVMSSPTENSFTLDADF
T1 sequence (P23921 1-792 partner): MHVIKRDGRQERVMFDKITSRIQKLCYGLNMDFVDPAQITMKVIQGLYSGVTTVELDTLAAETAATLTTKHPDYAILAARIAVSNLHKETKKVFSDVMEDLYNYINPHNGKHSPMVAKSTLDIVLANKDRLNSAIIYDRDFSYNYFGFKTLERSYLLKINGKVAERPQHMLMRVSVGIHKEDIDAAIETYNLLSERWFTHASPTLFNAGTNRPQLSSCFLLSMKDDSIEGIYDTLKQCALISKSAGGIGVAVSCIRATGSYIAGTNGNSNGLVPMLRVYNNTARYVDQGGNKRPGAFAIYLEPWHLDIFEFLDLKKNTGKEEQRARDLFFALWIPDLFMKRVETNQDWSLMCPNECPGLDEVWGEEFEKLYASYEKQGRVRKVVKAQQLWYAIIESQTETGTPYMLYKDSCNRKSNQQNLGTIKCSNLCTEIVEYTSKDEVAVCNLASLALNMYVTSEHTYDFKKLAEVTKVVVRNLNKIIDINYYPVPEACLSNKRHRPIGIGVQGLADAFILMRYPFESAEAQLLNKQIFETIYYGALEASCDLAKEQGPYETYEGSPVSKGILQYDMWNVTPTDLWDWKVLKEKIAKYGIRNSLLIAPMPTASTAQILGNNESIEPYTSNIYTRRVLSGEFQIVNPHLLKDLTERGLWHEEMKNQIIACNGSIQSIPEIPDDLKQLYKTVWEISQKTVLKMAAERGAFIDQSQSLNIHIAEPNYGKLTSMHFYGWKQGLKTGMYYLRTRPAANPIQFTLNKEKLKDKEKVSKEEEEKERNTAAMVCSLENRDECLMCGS

[2] = target: T2, RRM2 (Homo sapiens, UniProt P31350); test: microscale thermophoresis; assay type: binding
T2 construct: recombinant purified RRM2, lysine-labelled for MST
T2 sequence (P31350 1-389): T1 sequence (P31350 1-389)

IC50 [1] [µM] | Kd [2] [µM] | SMILES
29.8 |  | NC(=O)NO [HU, hydroxyurea, reference compound]
0.25 | 22.5 ± 14 | Oc1ccc(OCc2ccccc2)cc1 [MB, monobenzone]
